The record followed here is ChEMBL document CHEMBL6153170 (J Med Chem, 2025).

Test [1] deals with Programmed cell death protein 1/Programmed cell death 1 ligand 1 (Homo sapiens, UniProt Q9NZQ7). Kind of test: Inhibition of PD-1/PD-L1 (unknown origin) protein-protein interaction by HTRF assay. It is filed as protein-complex assay. A general note: TR-FRET usually uses a lanthanide donor and a delayed reading to cut background.
The subject of test [2] is B16-F10. Kind of test: cells. As to conditions: Mus musculus, B16-F10, 48 h.
Test [3] relates to HepG2. Kind of test: cells. The note with it: Homo sapiens, HepG2, 48 h.
Test [4] relates to MCF7. The experiment in a line: cells. The note with it: Homo sapiens, MCF7, 48 h.
The subject of test [5] is Jurkat. Kind of test: cells. As to conditions: Homo sapiens, 72 h.
Test [6] has as its target T1, Protein deacetylase HDAC6 (Homo sapiens) (UniProt Q9UBN7).
T1 sequence (whole entry): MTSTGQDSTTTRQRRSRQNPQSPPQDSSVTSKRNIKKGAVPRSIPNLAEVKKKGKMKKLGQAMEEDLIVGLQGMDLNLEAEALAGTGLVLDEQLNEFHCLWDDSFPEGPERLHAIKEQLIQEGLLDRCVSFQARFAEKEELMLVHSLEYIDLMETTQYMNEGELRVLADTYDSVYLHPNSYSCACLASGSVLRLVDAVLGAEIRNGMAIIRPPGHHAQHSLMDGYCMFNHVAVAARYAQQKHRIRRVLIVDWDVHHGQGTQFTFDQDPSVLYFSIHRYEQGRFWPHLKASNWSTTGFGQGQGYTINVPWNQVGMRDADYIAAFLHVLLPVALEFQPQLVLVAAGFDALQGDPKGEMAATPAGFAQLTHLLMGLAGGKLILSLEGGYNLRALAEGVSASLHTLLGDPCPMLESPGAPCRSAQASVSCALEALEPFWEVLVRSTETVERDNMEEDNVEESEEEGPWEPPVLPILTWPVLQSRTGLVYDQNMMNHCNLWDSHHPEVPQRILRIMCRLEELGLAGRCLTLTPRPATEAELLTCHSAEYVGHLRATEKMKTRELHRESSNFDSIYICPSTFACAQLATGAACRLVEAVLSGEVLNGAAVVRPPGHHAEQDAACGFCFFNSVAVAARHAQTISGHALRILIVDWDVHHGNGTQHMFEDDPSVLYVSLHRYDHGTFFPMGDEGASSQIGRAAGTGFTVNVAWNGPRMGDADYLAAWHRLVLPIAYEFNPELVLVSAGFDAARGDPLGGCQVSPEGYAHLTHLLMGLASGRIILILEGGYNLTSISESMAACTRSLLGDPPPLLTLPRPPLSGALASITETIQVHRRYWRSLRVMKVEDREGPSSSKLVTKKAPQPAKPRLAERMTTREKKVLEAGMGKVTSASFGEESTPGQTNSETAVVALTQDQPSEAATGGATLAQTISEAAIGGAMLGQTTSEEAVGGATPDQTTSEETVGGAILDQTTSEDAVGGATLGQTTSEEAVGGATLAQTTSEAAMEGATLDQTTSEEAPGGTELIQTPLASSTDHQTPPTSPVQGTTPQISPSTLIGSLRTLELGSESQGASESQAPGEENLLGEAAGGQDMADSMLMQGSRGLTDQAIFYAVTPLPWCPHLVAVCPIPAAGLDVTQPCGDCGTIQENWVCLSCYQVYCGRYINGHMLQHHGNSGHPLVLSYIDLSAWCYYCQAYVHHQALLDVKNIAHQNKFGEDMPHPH
As to conditions: Sf9, dose 100.0 nM, time 30.0 min.

Test [7] concerns the target T2, Histone deacetylase 7 (Homo sapiens, UniProt Q8WUI4).
T2 sequence (Q8WUI4 whole entry): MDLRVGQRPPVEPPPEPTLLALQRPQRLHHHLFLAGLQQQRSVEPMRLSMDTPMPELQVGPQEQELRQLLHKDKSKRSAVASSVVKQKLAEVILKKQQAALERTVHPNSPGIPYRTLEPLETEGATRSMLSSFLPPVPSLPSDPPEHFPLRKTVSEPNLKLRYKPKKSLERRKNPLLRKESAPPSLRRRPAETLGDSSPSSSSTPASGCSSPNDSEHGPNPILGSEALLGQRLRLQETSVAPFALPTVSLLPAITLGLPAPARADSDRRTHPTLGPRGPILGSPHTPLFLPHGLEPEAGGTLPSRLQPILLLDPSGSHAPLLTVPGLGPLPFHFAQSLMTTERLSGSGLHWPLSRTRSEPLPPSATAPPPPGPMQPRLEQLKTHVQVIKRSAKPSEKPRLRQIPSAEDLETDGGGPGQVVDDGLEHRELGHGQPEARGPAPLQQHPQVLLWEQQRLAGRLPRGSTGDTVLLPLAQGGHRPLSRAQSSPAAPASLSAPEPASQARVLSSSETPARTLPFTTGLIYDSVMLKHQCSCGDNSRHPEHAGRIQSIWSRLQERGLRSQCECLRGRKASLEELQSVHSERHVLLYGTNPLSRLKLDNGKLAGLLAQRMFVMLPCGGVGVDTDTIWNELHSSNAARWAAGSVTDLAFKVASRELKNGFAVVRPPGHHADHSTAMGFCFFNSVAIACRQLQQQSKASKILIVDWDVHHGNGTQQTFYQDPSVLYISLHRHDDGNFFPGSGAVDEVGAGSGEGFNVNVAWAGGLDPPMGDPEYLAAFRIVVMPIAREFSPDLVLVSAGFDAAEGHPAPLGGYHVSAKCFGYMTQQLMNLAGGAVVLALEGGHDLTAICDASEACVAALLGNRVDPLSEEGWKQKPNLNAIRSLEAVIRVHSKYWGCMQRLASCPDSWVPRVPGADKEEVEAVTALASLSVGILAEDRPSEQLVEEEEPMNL
Kind of test: Inhibition of N-terminal GST-tagged recombinant human HDAC7 (501 to 952 residues) extracted from baculovirus expression system using Ac-Leu-Gly-Lys (Tfa)-AMC as substrate preincubated for 5 mins followed by substrate addition and measured after 30 mins by fluorescence microplate reader analysis.

Chain of Programmed cell death protein 1/Programmed cell death 1 ligand 1 (Q15116 whole entry): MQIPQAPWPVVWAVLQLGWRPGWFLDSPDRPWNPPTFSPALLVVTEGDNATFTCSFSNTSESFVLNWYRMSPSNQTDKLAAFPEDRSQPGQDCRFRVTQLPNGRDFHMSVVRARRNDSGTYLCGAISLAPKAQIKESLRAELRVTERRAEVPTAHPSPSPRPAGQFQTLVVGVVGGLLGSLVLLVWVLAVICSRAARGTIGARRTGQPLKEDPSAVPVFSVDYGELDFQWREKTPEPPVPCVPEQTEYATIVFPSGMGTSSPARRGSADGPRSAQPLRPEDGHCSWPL
Chain of Programmed cell death protein 1/Programmed cell death 1 ligand 1 (Q9NZQ7 whole entry): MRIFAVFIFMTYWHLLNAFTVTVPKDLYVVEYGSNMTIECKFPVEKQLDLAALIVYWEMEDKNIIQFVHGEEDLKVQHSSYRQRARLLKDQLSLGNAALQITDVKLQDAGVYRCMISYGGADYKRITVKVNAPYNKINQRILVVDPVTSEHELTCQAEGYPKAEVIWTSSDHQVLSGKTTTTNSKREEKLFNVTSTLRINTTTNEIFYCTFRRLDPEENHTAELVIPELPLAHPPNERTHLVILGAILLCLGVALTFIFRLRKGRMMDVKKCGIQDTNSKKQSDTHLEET

Usually IC50 stands for the concentration at which inhibition is half-maximal. For `COc1nc(-c2cccc(-c3ccccc3)c2C)ccc1CNCCCC(=O)Nc1ccccc1N`, the IC50 in test [1] is 83.7 nM; in test [2], 9.82 µM; in test [3], more than 10 µM; in test [4] it was more than 10 µM; in test [5], 7.57 µM.

`COc1nc(OCc2cccc(-c3ccccc3)c2C)ccc1CNc1ccc(C(=O)NO)cc1`: the IC50 in test [1] came to 100 nM.

The inhibition is the drop in the measured response relative to a control, in per cent. Read a low inhibition as a weak effect. Take `COc1nc(OCc2cccc(-c3ccccc3)c2C)ccc1CNC(C)(C)CC(=O)Nc1ccccc1N`: it took 90.6 nM to reach half-maximal inhibition in test [1] (IC50). In test [6], this compound came in with an inhibition of less than 10%.

`COc1nc(OCc2cccc(-c3ccccc3)c2C)ccc1CN1CCCC1C(=O)Nc1ccccc1N` (stereo unspecified): in test [1], the IC50 is more than 1000 nM.

In test [1], `COc1nc(-c2cccc(-c3ccccc3)c2C)ccc1CNC1(C(=O)Nc2ccccc2N)CCCC1` yielded an IC50 of more than 1000 nM. In test [6], this compound yielded an inhibition of less than 13.5%.

`COc1nc(OCc2cccc(-c3ccccc3)c2C)ccc1CNc1cccc(C(=O)NO)c1` returned an IC50 in test [1] of 100 nM.

For the compound `COc1nc(-c2cccc(-c3ccccc3)c2C)ccc1CN1CCC(C(=O)Nc2ccccc2N)CC1`, it took 100 nM to reach half-maximal inhibition in test [1] (IC50). In test [6], this compound yielded an inhibition of less than 10%.

The compound `Nc1ccccc1NC(=O)c1ccc(CNC(=O)OCc2cccnc2)cc1` had an inhibition in test [6] of less than 10%.

In the case of `COc1nc(-c2cccc(-c3ccccc3)c2C)ccc1CNCCCCCCC(=O)Nc1ccccc1N`, the IC50 in test [1] worked out at 100 nM.

`COc1nc(-c2cccc(-c3ccccc3)c2C)ccc1CN1CCN(C(=O)NO)CC1` displayed an IC50 in test [1] of 100 nM. Moreover, in test [6], the inhibition was less than 10%.

As to `COc1nc(-c2cccc(-c3ccccc3)c2C)ccc1CN1CCC(C(=O)Nc2ccccc2N)C1` (stereo unspecified), the IC50 in test [1] came out at 99 nM.

In test [1], `COc1nc(-c2cccc(-c3ccccc3)c2C)ccc1CNc1ccc(CC(=O)NO)cc1` had an IC50 of 64.3 nM.

Regarding `COc1nc(-c2cccc(-c3ccccc3)c2C)ccc1CNCCCCCC(=O)NO`, the IC50 in test [1] is 69.4 nM; in test [7] it was more than 100 µM; in test [2], more than 10 µM; in test [3] it was more than 10 µM; in test [4] it was more than 10 µM; in test [5], more than 10 µM.

Compound `COc1nc(-c2cccc(-c3ccccc3)c2C)ccc1CNc1ccc(C(=O)Nc2ccccc2N)s1` came in with an IC50 in test [1] of 100 nM. In test [6], this compound had an inhibition of less than 10%.

In test [1], `CC[C@@H](NCc1ccc(-c2cccc(-c3ccccc3)c2C)nc1OC)C(=O)Nc1ccccc1N` registered an IC50 of more than 1000 nM. The compound also registered an inhibition in test [6] of less than 13.5%.

In turn, `COc1nc(-c2cccc(-c3ccccc3)c2C)ccc1CNCCC(=O)NO` came in with an IC50 in test [1] of 67.6 nM.

With `COc1nc(OCc2cccc(-c3ccccc3)c2C)ccc1CN1CCC(C(=O)Nc2ccccc2N)C1` (stereo unspecified), in test [1], inhibition was half-maximal at 72.2 nM (IC50).

Regarding `COc1nc(-c2cccc(-c3ccccc3)c2C)ccc1CNc1cccc(C(=O)Nc2ccccc2N)c1`, the IC50 in test [1] was more than 1000 nM. This compound gave an inhibition in test [6] of less than 10%.

As for `COc1nc(OCc2cccc(-c3ccccc3)c2C)ccc1CNCCCCCC(=O)Nc1ccccc1N`, inhibition in test [1] was half-maximal at 96.3 nM (IC50).

With `COc1nc(OCc2cccc(-c3ccccc3)c2C)ccc1CNCCCC(=O)NO`, in test [1], the IC50 is more than 1000 nM.

`COc1nc(-c2cccc(-c3ccccc3)c2C)ccc1Cn1ccc(C(=O)Nc2ccccc2N)c1` returned an IC50 in test [1] of 85.2 nM.

In turn, `CCCC[C@@H](NCc1ccc(-c2cccc(-c3ccccc3)c2C)nc1OC)C(=O)Nc1ccccc1N` came in with an IC50 in test [1] of more than 1000 nM. The compound further had an inhibition in test [6] of less than 13.5%.

The compound `CC[C@@H](NCc1ccc(OCc2cccc(-c3ccccc3)c2C)nc1OC)C(=O)Nc1ccccc1N` showed an IC50 in test [1] of 100 nM. The compound also yielded an inhibition in test [6] of less than 10%.

Compound `COc1nc(-c2cccc(-c3ccccc3)c2C)ccc1CNC1CCC(C(=O)Nc2ccccc2N)CC1` (stereo unspecified) had an IC50 in test [1] of more than 1000 nM. This compound also yielded an inhibition in test [6] of less than 13.5%.

`COc1nc(OCc2cccc(-c3ccccc3)c2C)ccc1CNc1cc(C(=O)NO)c[nH]1` had an IC50 in test [1] of 87.6 nM.

The compound `COc1nc(-c2cccc(-c3ccccc3)c2C)ccc1CNc1ccc(C(=O)NO)s1` registered an IC50 in test [1] of 100 nM.

`COc1nc(OCc2cccc(-c3ccccc3)c2C)ccc1CNc1ccc(C(=O)Nc2ccccc2N)cc1` had an IC50 in test [1] of more than 1000 nM.

In the case of `COc1nc(-c2cccc(-c3ccccc3)c2C)ccc1CNc1ccc(CC(=O)Nc2ccccc2N)cc1`, the IC50 in test [1] was determined as 100 nM. In test [6], the inhibition was less than 10%.

The compound `COc1nc(OCc2cccc(-c3ccccc3)c2C)ccc1CNCCCCCC(=O)NO` showed an IC50 in test [1] of 68.3 nM.

For the compound `CCCC[C@@H](NCc1ccc(OCc2cccc(-c3ccccc3)c2C)nc1OC)C(=O)Nc1ccccc1N`, the IC50 in test [1] was 100 nM. Besides, in test [6], the inhibition is less than 10%.

`COc1nc(OCc2cccc(-c3ccccc3)c2C)ccc1CNC1CCC(C(=O)Nc2ccccc2N)CC1` (stereo unspecified) gave a concentration for half-maximal inhibition (IC50) in test [1] of more than 1000 nM. Further, the inhibition in test [6] was less than 10%.

For `COc1nc(OCc2cccc(-c3ccccc3)c2C)ccc1CNc1ccc(CC(=O)NO)cc1`, in test [1], inhibition was half-maximal at 100 nM (IC50).

`COc1nc(-c2cccc(-c3ccccc3)c2C)ccc1CNCCCCCC(=O)Nc1ccccc1N` displayed an IC50 in test [1] of 88 nM.

In test [1], `COc1nc(OCc2cccc(-c3ccccc3)c2C)ccc1CNC(C)(C)C(=O)NO` had an IC50 of more than 1000 nM. Besides, the inhibition in test [6] is less than 10%.

Turning to `COc1nc(OCc2cccc(-c3ccccc3)c2C)ccc1CNCCCCCCC(=O)Nc1ccccc1N`, inhibition in test [1] was half-maximal at 83.6 nM (IC50).

With `CCC[C@@H](NCc1ccc(OCc2cccc(-c3ccccc3)c2C)nc1OC)C(=O)Nc1ccccc1N`, in test [1], 97.5 nM corresponded to half-maximal inhibition (IC50). The compound also yielded an inhibition in test [6] of less than 10%.

As to `COc1nc(OCc2cccc(-c3ccccc3)c2C)ccc1CNCC(=O)NO`, the midpoint of inhibition in test [1], the IC50, lay at 93.5 nM. In test [6], this compound gave an inhibition of less than 10%.

In test [1], `COc1nc(-c2cccc(-c3ccccc3)c2C)ccc1CNc1ccc2cc(C(=O)Nc3ccccc3N)ccc2c1` yielded an IC50 of more than 1000 nM.

`COc1nc(-c2cccc(-c3ccccc3)c2C)ccc1CNc1cc(C(=O)NO)c[nH]1` showed an IC50 in test [1] of 100 nM. Also, the inhibition in test [6] was less than 10%.

Take `COc1nc(-c2cccc(-c3ccccc3)c2C)ccc1CNCCCCC(=O)Nc1ccccc1N`: in test [1], the IC50 amounted to 100 nM.
